{"source": "paper PMC10086185", "about": "“Synthesis, radiolabeling, and evaluation of a (4-quinolinoyl)glycyl-2-cyanopyrrolidine analogue for fibroblast activation protein (FAP) PET imaging” (Frontiers in Bioengineering and Biotechnology, 2023)", "key": {"[1]": {"experiment": "In vitro stability in PBS saline, 20% EtOH solution and rat serum (radio-HPLC)", "format": "physicochemical", "conditions": "4 h at 37°C", "method": "The in vitro stability of [^18F]3 was performed in PBS saline, 20% EtOH solution, and rat serum. In general, a solution of [^18F]3 (50 µL, approximately 20 KBq) was added to the PBS saline (2 mL), 20% EtOH solution (2 mL), and rat serum (2 mL), and these solutions were suspended in a water bath under 37°C for […]. Samples from PBS saline and 20% EtOH solution were loaded into the analytical radio-HPLC for the detection of RCP at designated time points (0, 1, 2, and 4 h), with the same condition described previously. The samples from the rat serum were added the same volume of acetonitrile to deposit the plasma protein, and the supernatant obtained by centrifugation (×12,000 r/min, 5 min) was analyzed at corresponding time points."}, "U87MG cells": {"test_system": "U87MG cells", "experiment": "Cellular uptake of [^18F]3 in U87MG cells", "format": "cell-based", "conditions": "U87 cells", "method": "(§1) Briefly, all cells were divided into the following two groups: A: blocking group and B: vehicle group. All cells were cultured, grouped, and plated (approximately 2*10^6 cells per well) before use. Cells were treated with [^18F]3 (74 KBq) and incubated at 37°C under a 5% CO2 atmosphere. […] Incubated at 37°C for 1 h, the medium from each well was removed, and the cells were washed twice with 1 mL of PBS. The medium and the PBS from each well were combined and counted in a Gamma counter (PerkinElmer Wizard 2470) for radioactivity counts. The cells were then handled with 1 mL of 1 M NaOH, and the lysates were also counted in the Wizard 2470 gamma counter. The uptake ratios for each group were then calculated with this equation: %Dose = […](medium counts + PBS counts + cell lysate counts)."}, "[2]": {"test_system": "A549-FAPI cells (human FAP-expressing A549)", "experiment": "Cellular uptake of [^18F]3 in A549-FAPI cells", "format": "cell-based", "method": "as §1"}, "U87MG xenograft tumors": {"test_system": "U87MG xenograft tumors", "experiment": "Micro-PET/CT imaging, U87MG xenograft tumors", "format": "in vivo, BALB/c nude mice", "conditions": "U87MG xenografted tumors, within 90 min", "method": "BALB/c nude mice used in this study were obtained from the Animal Center of Sichuan University. Tumor-bearing mouse models were established by the subcutaneous injection of 100 µL of PBS suspension containing approximately 1*10^6 tumor cells to the body side of the subjects. The tumor volume was monitored every day, and the tumor-bearing mice were ready for imaging once the tumor volume reached 0.5 mm^3 (tumor volume can be calculated by this equation: Volume = 0.5 * long tail * short tail *short tail). Micro-PET/CT imaging studies were performed on the IRIS Micro-PET/CT system (Inviscan SAS, France). Tumor-bearing mice were injected with approximately 11.2–14.8 MBq of [^18F]3 (200 µL) via the tail vein under anaesthetization by isoflurane. Static PET images were obtained at designated time points and were reconstructed with a 3D-OSEM algorithm using a Monte Carlo-based accurate detector model. Then, 170 sec-CT acquisition was conducted with 50 kV, 1 mA X-ray output for attenuation correction and anatomical orientation. […]\nBALB/c nude mice used in this study were obtained from the Animal Center of Sichuan university. […] The tumor volume was monitored every day and the tumor-bearing mice were ready for imaging once the tumor volume reach 0.5 mm^3 (tumor volume can be calculated by this equation: Volume = 0.5 * long tail * short tail *short tail). […]"}, "[3]": {"conditions": "1 h, pre-treatment with compound 3, 10 µM"}}}
{"smiles": "N#C[C@@H]1CC(F)(F)CN1C(=O)CNC(=O)c1ccnc2ccc([18F])cc12", "note": "[[^18F]3]", "values": [{"measurement": "intact [^18F]3", "setting": "[1]", "result": "over 90%"}, {"measurement": "Cellular uptake ratio, blocking group", "setting": "U87MG cells; [3]", "result": "1.19% ± 0.02%"}, {"measurement": "Cellular uptake ratio", "setting": "U87MG cells; 1 h incubation, vehicle group", "result": "1.50% ± 0.13%"}, {"measurement": "Cellular uptake ratio, blocking group", "setting": "[2]; [3]", "result": "0.56% ± 0.03%"}, {"measurement": "Cellular uptake ratio", "setting": "[2]; 1 h incubation, vehicle group", "result": "1.07% ± 0.01%"}, {"measurement": "Tumor SUV", "setting": "U87MG xenograft tumors", "result": "greater than 0.22"}]}
